Measured values as given in publication PMC7872314, “Modeling Bioavailable Concentrations in Zebrafish Cell Lines and Embryos Increases the Correlation of Toxicity Potencies across Test Systems” (Environmental Science & Technology, 2020).
Read-outs that look alike come from different tables or passages of the source.

Experiments:
[1] = test system: ZF4 (fibroblasts) cell line; experiment: MTS assay (MTS/BCA multiplex), NAD(P)H metabolism; assay type: cell-based, zebrafish (Danio rerio); conditions: Danio rerio, Fibroblast
[2] = test system: ZFL (hepatocytes) cell line; experiment: cells; assay type: cell-based, zebrafish (Danio rerio); conditions: Danio rerio, Hepatocyte
[3] = test system: ZF4 (fibroblasts) cell line; experiment: BCA assay (MTS/BCA multiplex), protein amount; assay type: cell-based, zebrafish (Danio rerio); conditions: Danio rerio, Fibroblast
[4] = test system: ZFL (hepatocytes) cell line; experiment: cells; assay type: cell-based, zebrafish (Danio rerio); conditions: Danio rerio, Hepatocyte; remark: listed apart in the source
[5] = test system: ZF4 (fibroblasts) cell line; experiment: ATP assay (ATP/LDH multiplex), ATP metabolism; assay type: cell-based, zebrafish (Danio rerio); conditions: Danio rerio, Fibroblast
[6] = test system: ZFL (hepatocytes) cell line; experiment: cells; assay type: cell-based, zebrafish (Danio rerio); conditions: Danio rerio, Hepatocyte; remark: listed apart in the source
[7] = test system: ZF4 (fibroblasts) cell line; experiment: alamarBlue (AB) endpoint of AB/CFDA/NR multiplex, cellular respiration; assay type: cell-based, zebrafish (Danio rerio); conditions: Danio rerio, Fibroblast
[8] = test system: ZFL (hepatocytes) cell line; experiment: cells; assay type: cell-based, zebrafish (Danio rerio); conditions: Danio rerio, Hepatocyte; remark: listed apart in the source
[9] = test system: ZF4 (fibroblasts) cell line; experiment: CFDA endpoint of AB/CFDA/NR multiplex, membrane stability; assay type: cell-based, zebrafish (Danio rerio); conditions: Danio rerio, Fibroblast
[10] = test system: ZFL (hepatocytes) cell line; experiment: cells; assay type: cell-based, zebrafish (Danio rerio); conditions: Danio rerio, Hepatocyte; remark: listed apart in the source
[11] = test system: ZF4 (fibroblasts) cell line; experiment: Neutral red, absorbance (NRa), AB/CFDA/NR multiplex, lysosome stability; assay type: cell-based, zebrafish (Danio rerio); conditions: Danio rerio, Fibroblast
[12] = test system: ZFL (hepatocytes) cell line; experiment: cells; assay type: cell-based, zebrafish (Danio rerio); conditions: Danio rerio, Hepatocyte; remark: listed apart in the source
[13] = test system: ZF4 (fibroblasts) cell line; experiment: Neutral red, fluorescence (NRf), AB/CFDA/NR multiplex, lysosome stability; assay type: cell-based, zebrafish (Danio rerio); conditions: Danio rerio, Fibroblast
[14] = test system: ZFL (hepatocytes) cell line; experiment: cells; assay type: cell-based, zebrafish (Danio rerio); conditions: Danio rerio, Hepatocyte; remark: listed apart in the source
zebrafish embryos [15] = experiment: animal or person; assay type: in vivo, zebrafish (Danio rerio); conditions: for EC50: Danio rerio
ZF4 and ZFL cell lines = experiment: Cytotoxicity assays, all endpoints, both cell lines (mean/range); assay type: cell-based, zebrafish (Danio rerio); conditions: 48 h, mean of all cytotoxicity endpoints (without LDH) in ZF4 and ZFL
[16] = test system: zebrafish cell lines vs zebrafish embryo; experiment: Potency ratios IC50;x/EC50;x (cytotoxicity assays vs mFET); set-up: species or system zebrafish (Danio rerio)
zebrafish embryos [17] = test system: zebrafish embryos; set-up: method as in earlier work; conditions: nominal, cited from earlier work
[18] = ref Comptox, PubChem or DrugBank; cited from earlier work

Compound `Cc1cc(-n2c(=O)[nH]c(=O)n(C)c2=O)ccc1Oc1ccc(SC(F)(F)F)cc1` [Toltrazuril, toltrazuril] has an IC50 ([1]; MTS - ZF4, log10 of IC50, read-out: LogIC50 (converted)) of 175 µM, an IC50 ([1]; MTS - ZF4, read-out: IC50) of 175 µM and an IC50 ([1]; ZF4, 48 h exposure, nominal, log10, read-out: logIC50 (log10 IC50;nom) MTS (converted)) of 174 µM. The IC50 ([1]; ZF4, 48 h exposure, nominal, read-out: IC50;nom MTS) was 175 µM, the IC50 ([2]; MTS - ZFL, log10 of IC50, read-out: LogIC50 (converted)) was 62.8 µM and the IC50 ([2]; MTS - ZFL, read-out: IC50) was 62.8 µM. It also gave an IC50 ([2]; ZFL, 48 h exposure, nominal, log10, read-out: logIC50 (log10 IC50;nom) MTS (converted)) of 63.1 µM, an IC50 ([2]; ZFL, 48 h exposure, nominal, read-out: IC50;nom MTS) of 62.8 µM and an IC50 ([3]; BCA - ZF4, log10 of IC50, read-out: LogIC50 (converted)) of 141 µM. It also gave an IC50 ([3]; BCA - ZF4, read-out: IC50) of 141 µM, an IC50 ([3]; ZF4, 48 h exposure, nominal, log10, read-out: logIC50 (log10 IC50;nom) BCA (converted)) of 141 µM and an IC50 ([3]; ZF4, 48 h exposure, nominal, read-out: IC50;nom BCA) of 141 µM. The IC50 ([4]; BCA - ZFL, log10 of IC50, read-out: LogIC50 (converted)) was 294 µM, the IC50 ([4]; BCA - ZFL, read-out: IC50) was 294 µM and the IC50 ([4]; ZFL, 48 h exposure, nominal, log10, read-out: logIC50 (log10 IC50;nom) BCA (converted)) was 295 µM. It also gave an IC50 ([4]; ZFL, 48 h exposure, nominal, read-out: IC50;nom BCA) of 294 µM, an IC50 ([5]; ATP - ZF4, log10 of IC50, read-out: LogIC50 (converted)) of 43.8 µM and an IC50 ([5]; ATP - ZF4, read-out: IC50) of 43.8 µM. For the same compound, the IC50 ([5]; ZF4, 48 h exposure, nominal, log10, read-out: logIC50 (log10 IC50;nom) ATP (converted)) was 43.7 µM, the IC50 ([5]; ZF4, 48 h exposure, nominal, read-out: IC50;nom ATP) was 43.8 µM and the IC50 ([6]; ATP - ZFL, log10 of IC50, read-out: LogIC50 (converted)) was 20.3 µM. The IC50 ([6]; ATP - ZFL, read-out: IC50) was 20.3 µM, the IC50 ([6]; ZFL, 48 h exposure, nominal, log10, read-out: logIC50 (log10 IC50;nom) ATP (converted)) was 20.4 µM and the IC50 ([6]; ZFL, 48 h exposure, nominal, read-out: IC50;nom ATP) was 20.3 µM. It also gave an IC50 ([7]; AB - ZF4, log10 of IC50, read-out: LogIC50 (converted)) of 97.5 µM, an IC50 ([7]; AB - ZF4, read-out: IC50) of 97.5 µM and an IC50 ([7]; ZF4, 48 h exposure, nominal, log10, read-out: logIC50 (log10 IC50;nom) AB (converted)) of 97.7 µM. It also gave an IC50 ([7]; ZF4, 48 h exposure, nominal, read-out: IC50;nom AB) of 97.5 µM, an IC50 ([8]; AB - ZFL, log10 of IC50, read-out: LogIC50 (converted)) of 69.6 µM and an IC50 ([8]; AB - ZFL, read-out: IC50) of 69.6 µM. The IC50 ([8]; ZFL, 48 h exposure, nominal, log10, read-out: logIC50 (log10 IC50;nom) AB (converted)) was 69.2 µM, the IC50 ([8]; ZFL, 48 h exposure, nominal, read-out: IC50;nom AB) was 69.6 µM and the IC50 ([9]; CFDA - ZF4, log10 of IC50, read-out: LogIC50 (converted)) was 104 µM. For the same compound, the IC50 ([9]; CFDA - ZF4, read-out: IC50) was 104 µM, the IC50 ([9]; ZF4, 48 h exposure, nominal, log10, read-out: logIC50 (log10 IC50;nom) CFDA (converted)) was 105 µM and the IC50 ([9]; ZF4, 48 h exposure, nominal, read-out: IC50;nom CFDA) was 104 µM. The IC50 ([10]; CFDA - ZFL, log10 of IC50, read-out: LogIC50 (converted)) was 122 µM, the IC50 ([10]; CFDA - ZFL, read-out: IC50) was 122 µM and the IC50 ([10]; ZFL, 48 h exposure, nominal, log10, read-out: logIC50 (log10 IC50;nom) CFDA (converted)) was 123 µM. For the same compound, the IC50 ([10]; ZFL, 48 h exposure, nominal, read-out: IC50;nom CFDA) was 122 µM, the IC50 ([11]; NR-abs - ZF4, log10 of IC50, read-out: LogIC50 (converted)) was 49.4 µM and the IC50 ([11]; NR-abs - ZF4, read-out: IC50) was 49.4 µM. It also gave an IC50 ([11]; ZF4, 48 h exposure, nominal, log10, read-out: logIC50 (log10 IC50;nom) NRa (converted)) of 49 µM, an IC50 ([11]; ZF4, 48 h exposure, nominal, read-out: IC50;nom NRa) of 49.4 µM and an IC50 ([11]; ZF4 cell line, NRa endpoint, nominal, read-out: IC50;nom) of 21 µg/mL. The IC50 ([12]; NR-abs - ZFL, log10 of IC50, read-out: LogIC50 (converted)) was 84.7 µM, the IC50 ([12]; NR-abs - ZFL, read-out: IC50) was 84.7 µM and the IC50 ([12]; ZFL, 48 h exposure, nominal, log10, read-out: logIC50 (log10 IC50;nom) NRa (converted)) was 85.1 µM. It also gave an IC50 ([12]; ZFL, 48 h exposure, nominal, read-out: IC50;nom NRa) of 84.7 µM, an IC50 ([13]; NR-fluo - ZF4, log10 of IC50, read-out: LogIC50 (converted)) of 81.3 µM and an IC50 ([13]; NR-fluo - ZF4, read-out: IC50) of 81.3 µM. For the same compound, the IC50 ([13]; ZF4, 48 h exposure, nominal, log10, read-out: logIC50 (log10 IC50;nom) NRf (converted)) was 81.3 µM, the IC50 ([13]; ZF4, 48 h exposure, nominal, read-out: IC50;nom NRf) was 81.3 µM and the IC50 ([14]; NR-fluo - ZFL, log10 of IC50, read-out: LogIC50 (converted)) was 78.7 µM. The IC50 ([14]; NR-fluo - ZFL, read-out: IC50) was 78.7 µM, the IC50 ([14]; ZFL, 48 h exposure, nominal, log10, read-out: logIC50 (log10 IC50;nom) NRf (converted)) was 79.4 µM and the IC50 ([14]; ZFL, 48 h exposure, nominal, read-out: IC50;nom NRf) was 78.7 µM. For the same compound, the “difference in toxicity (EC50;nom) between 48 hpf and 144 hpf” value (zebrafish embryos [15]; 48 hpf time point less sensitive than 144 hpf) was “marginally more toxic”, the “log EC50;nom (mFET)” value (zebrafish embryos [15]; 48 hpf, nominal, log10, listed as Tol) was -4.897 M and the EC50 (zebrafish embryos [15]; 48 hpf, nominal, log10, read-out: log EC50;nom (mFET) (converted)) was 12.6 µM. The EC50 (zebrafish embryos [15]; 48 hpf, nominal, read-out: EC50;nom (embryo)) was 5.4 µg/mL, the EC50 (zebrafish embryos [15]; read-out: EC50 48hpf) was 12.7 µM and the EC50 (zebrafish embryos [15]; read-out: EC50;nom (mFET)) was 12.7 µM. The IC50 (ZF4 and ZFL cell lines; Danio rerio, log10, read-out: Mean log IC50nom (converted)) was 85.1 µM, the “Mean log IC50nom” value (ZF4 and ZFL cell lines; log10, listed as Tol) was -4.074 M and the “in vitro toxicity (IC50;free) higher than EC50;nom” value ([16]; ZF4 NRa endpoint vs embryo) was 2 fold. For the same compound, the “potency ratio IC50;nom/EC50;nom (median)” value ([16]; median over cytotoxicity endpoints, nominal, 48 h cells / 48 hpf mFET) was 6.54, the EC50 (zebrafish embryos [17]; 144 hpf, converted) was 2.59 µM and the “logEC50 144 hpf” value (zebrafish embryos [17]; log10) was -5.5874 M. For the same compound, the BCF [18] was 14.3, the Physiological charge [18] was 0 and the “Water Solubility” value [18] was “insoluble”. The logKoa [18] was 10.2, the logKow [18] was 4.31 and the “pKa (Strongest Acidic)” value [18] was 6.47. For the same compound, the “w_solubility (water solubility)” value [18] was 106 µM.
